Values after ≈ are worked out from the molar mass of the structure shown. Like-named read-outs stand apart in the source and are kept apart here. Where only a bound is given, the exact number is not on record here.

The values that follow come from US12637478B2, “Compound, preparation method thereof, and antibiotic composition comprising same” (priority 2020, dated 2026).

Assay [1] deals with S. aureus^MS. Description: MIC by broth microdilution (aerobic pathogens), test strain 2. It counts as cell-based. The note with it: Staphylococcus aureus. As for the experimental part: (§1) The antibacterial activity of the compounds of Examples 1 to 48 of the present invention against aerobic pathogens were evaluated by measuring the minimum concentration of the antibiotic capable of inhibiting bacterial growth by 90% compared to the growth of the non-drug treated control group. MIC was measured by the broth microdilution method based on CLSI standards [Reference: Clinical and Laboratory Standards Institute Document. (2000) Methods for Dilution Antimicrobial Susceptibility Test for Bacteria that Grow Aerobically-Fifth Edition: M7-A5. CLSI, Villanova, PA].
(§2) All 13 strains such as methicillin susceptible Staphylococcus aureus (MSSA), methicillin resistant Staphylococcus aureus (MRSA), Vancomycin resistant Staphylococcus aureus (VRSA), Staphylococcus epidermidis, methicillin resistant Staphylococcus epidermidis, Enterococcus faecalis, Vancomycin resistant Enterococcus faecalis, Enterococcus faecium, Vancomycin resistant Enterococcus faecium were used.
A general note: Broth dilution looks for growth in wells or tubes with falling amounts of substance.

For another assay, the system named is E. faecalis^VanA. Kind of assay: MIC by broth microdilution (aerobic pathogens), test strain 8. Format: cell-based, Vancomycin resistant Enterococcus faecalis. The conditions noted are these: Enterococcus faecalis. As for the experimental part: as §1, §2
Another assay has as its system E. faecium^VRE. Description: MIC by broth microdilution (aerobic pathogens), test strain 11. It counts as cell-based, Vancomycin resistant Enterococcus faecium. The conditions noted are these: Enterococcus faecium. As for the experimental part:
as §1, §2

For a further assay, the system named is E. faecium^LinR. Kind of assay: MIC by broth microdilution (aerobic pathogens), test strain 12. It counts as cell-based, Linezolid resistant Enterococcus faecium. The conditions noted are these: Enterococcus faecium. On the procedure: as §1, §2
The next assay deals with S. epidermis. Description: MIC by broth microdilution (aerobic pathogens), test strain 5. It counts as cell-based. The note with it: Staphylococcus epidermidis. As for the experimental part: as §1, §2
The next assay relates to S. aureus^VR. Description: MIC by broth microdilution (aerobic pathogens), test strain 4. Format: cell-based, Vancomycin resistant Staphylococcus aureus. The note with it: Staphylococcus aureus. On the procedure:
as §1, §2

Another assay relates to E. faecalis. Kind of assay: MIC by broth microdilution (aerobic pathogens), test strain 7. It counts as cell-based. The note with it: Enterococcus faecalis. As for the experimental part: as §1, §2
The next assay concerns E. faecium. Description: MIC by broth microdilution (aerobic pathogens), test strain 10. It counts as cell-based. The note with it: Enterococcus faecium. As for the experimental part:
as §1, §2

The next assay deals with S. epidermis^MR. Description: MIC by broth microdilution (aerobic pathogens), test strain 6. It counts as cell-based, Methicillin resistant Staphylococcus epidermidis. The note with it: Staphylococcus epidermidis. As for the experimental part:
as §1, §2

Assay [2] concerns S. aureus^MS. Description: MIC by broth microdilution (aerobic pathogens), test strain 1. Format: cell-based. The conditions noted are these: Staphylococcus aureus. On the procedure:
as §1, §2

The subject of a further assay is E. faecalis^LinR. Description: MIC by broth microdilution (aerobic pathogens), test strain 9. Format: cell-based, Linezolid resistant Enterococcus faecalis. The note with it: Enterococcus faecalis. As for the experimental part:
as §1, §2

In another assay the test system is S. aureus^MR. Description: MIC by broth microdilution (aerobic pathogens), test strain 3. It counts as cell-based, Methicillin resistant Staphylococcus aureus. The note with it: Staphylococcus aureus. On the procedure: as §1, §2
The next assay concerns C. difficile 174. Kind of assay: MIC by agar dilution against Clostridioides difficile, test strain 18. Format: cell-based. The note with it: test strain 18, C. difficile 174, anaerobic, agar dilution, read-out: MIC. In general terms: Agar dilution tests growth on a series of plates holding different concentrations.
Another assay has as its system C. difficile 161. Kind of assay: MIC by agar dilution against Clostridioides difficile, test strain 16. The note with it: test strain 16, C. difficile 161, anaerobic, agar dilution, read-out: MIC. Format: cell-based.
A further assay relates to C. difficile 9689. Description: MIC by agar dilution against Clostridioides difficile, test strain 13. Format: cell-based. The conditions noted are these: test strain 13, C. difficile 9689, anaerobic, agar dilution, read-out: MIC.
The next assay relates to C. difficile 152. Kind of assay: MIC by agar dilution against Clostridioides difficile, test strain 14. It counts as cell-based. The note with it: test strain 14, C. difficile 152, anaerobic, agar dilution, read-out: MIC.
Another assay relates to C. difficile 181. Kind of assay: MIC by agar dilution against Clostridioides difficile, test strain 19. Format: cell-based. The note with it: test strain 19, C. difficile 181, anaerobic, agar dilution, read-out: MIC.
Another assay deals with C. difficile 173. Kind of assay: MIC by agar dilution against Clostridioides difficile, test strain 17. The conditions noted are these: test strain 17, C. difficile 173, anaerobic, agar dilution, read-out: MIC. It counts as cell-based.
The next assay deals with C. difficile 159. Kind of assay: MIC by agar dilution against Clostridioides difficile, test strain 15. Format: cell-based. The note with it: test strain 15, C. difficile 159, anaerobic, agar dilution, read-out: MIC.
Setting [3] is: test strain 2, S. aureus^MS, read-out: MIC.
Where [4] appears, read: test strain 8, E. faecalis^VanA (vancomycin resistant), read-out: MIC.
Setting [5] is: test strain 11, E. faecium^VRE (vancomycin resistant), read-out: MIC.
Setting [6] is: test strain 12, E. faecium^LinR (linezolid resistant), read-out: MIC.
The mark [7] stands for this setting: test strain 5, S. epidermis, read-out: MIC.
The mark [8] stands for this setting: test strain 4, S. aureus^VR (vancomycin resistant), read-out: MIC.
Where [9] appears, read: test strain 7, E. faecalis, read-out: MIC.
Where [10] appears, read: test strain 10, E. faecium, read-out: MIC.
The mark [11] stands for this setting: test strain 6, S. epidermis^MR (methicillin resistant), read-out: MIC.
[12] abbreviates: test strain 1, S. aureus^MS, read-out: MIC.
The mark [13] stands for this setting: test strain 9, E. faecalis^LinR (linezolid resistant), read-out: MIC.
Where [14] appears, read: test strain 3, S. aureus^MR (methicillin resistant), read-out: MIC.

As usually defined, the MIC is the lowest concentration found to suppress growth. In the case of `C/C=C(\NC(=O)c1csc(-c2csc(-c3ccc4c(n3)-c3csc(n3)[C@H]([C@@H](C)O)NC(=O)c3csc(n3)[C@H](C(C)C)NC(=O)c3csc(n3)/C(=C/C)NC(=O)[C@H]([C@@H](C)O)NC(=O)c3csc-4n3)n2)n1)C(=O)NCCN1CCN(C(C)C)CC1` [Compound 47], the minimum inhibitory concentration (MIC) with S. aureus^MS [1] (setting [3]) stood at 0.5 µg/mL (≈ 0.403 µM); in the assay with E. faecalis^VanA (setting [4]), 0.5 µg/mL (≈ 0.403 µM); with E. faecium^VRE (setting [5]) it was 1 µg/mL (≈ 0.806 µM); in the assay with E. faecium^LinR (setting [6]), 1 µg/mL (≈ 0.806 µM); in the assay on S. epidermis (setting [7]) it was 0.5 µg/mL (≈ 0.403 µM); with S. aureus^VR (setting [8]), 1 µg/mL (≈ 0.806 µM). For the same compound, the MIC with E. faecalis (setting [9]) amounted to 0.5 µg/mL (≈ 0.403 µM); in the assay with E. faecium (setting [10]), 0.5 µg/mL (≈ 0.403 µM); in the assay with S. epidermis^MR (setting [11]), 0.5 µg/mL (≈ 0.403 µM); in the assay on S. aureus^MS [2] (setting [12]), 0.5 µg/mL (≈ 0.403 µM); in the assay on E. faecalis^LinR (setting [13]), 1 µg/mL (≈ 0.806 µM); in the assay with S. aureus^MR (setting [14]), 1 µg/mL (≈ 0.806 µM).

With `C/C=C(\NC(=O)c1csc(-c2csc(-c3ccc4c(n3)-c3csc(n3)[C@H]([C@@H](C)O)NC(=O)c3csc(n3)[C@H](C(C)C)NC(=O)c3csc(n3)/C(=C/C)NC(=O)[C@H]([C@@H](C)O)NC(=O)c3csc-4n3)n2)n1)C(=O)NCCCN1CCOCC1` [Compound 48], the MIC came to 0.5 µg/mL (≈ 0.412 µM) in the assay with S. aureus^MS [1] (setting [3]); 0.5 µg/mL (≈ 0.412 µM) in the assay on E. faecalis^VanA (setting [4]); 1 µg/mL (≈ 0.824 µM) with E. faecium^VRE (setting [5]); 1 µg/mL (≈ 0.824 µM) in the assay on E. faecium^LinR (setting [6]); 0.5 µg/mL (≈ 0.412 µM) in the assay on S. epidermis (setting [7]); 1 µg/mL (≈ 0.824 µM) in the assay on S. aureus^VR (setting [8]). Also, the MIC in the assay with E. faecalis (setting [9]) worked out at 0.5 µg/mL (≈ 0.412 µM); with E. faecium (setting [10]), 0.5 µg/mL (≈ 0.412 µM); with S. epidermis^MR (setting [11]), 0.5 µg/mL (≈ 0.412 µM); in the assay on S. aureus^MS [2] (setting [12]), 0.5 µg/mL (≈ 0.412 µM); in the assay on E. faecalis^LinR (setting [13]), 1 µg/mL (≈ 0.824 µM); in the assay on S. aureus^MR (setting [14]), 1 µg/mL (≈ 0.824 µM).

Regarding `CC(=O)NC[C@H]1CN(c2ccc(N3CCOCC3)c(F)c2)C(=O)O1` [Lin, Linezolid, reference compound], the MIC in the assay with S. aureus^MS [1] (setting [3]) was 1 µg/mL (≈ 2.96 µM); with E. faecalis^VanA (setting [4]), 2 µg/mL (≈ 5.93 µM); in the assay on E. faecium^VRE (setting [5]), 2 µg/mL (≈ 5.93 µM); with E. faecium^LinR (setting [6]) it was 32 µg/mL (≈ 94.9 µM); in the assay on S. epidermis (setting [7]) it was 1 µg/mL (≈ 2.96 µM); in the assay on S. aureus^VR (setting [8]), 8 µg/mL (≈ 23.7 µM). The MIC with E. faecalis (setting [9]) stood at 2 µg/mL (≈ 5.93 µM); in the assay on E. faecium (setting [10]) it was 4 µg/mL (≈ 11.9 µM); with S. epidermis^MR (setting [11]), 1 µg/mL (≈ 2.96 µM); in the assay with S. aureus^MS [2] (setting [12]), 2 µg/mL (≈ 5.93 µM); in the assay on E. faecalis^LinR (setting [13]), 64 µg/mL (≈ 190 µM); with S. aureus^MR (setting [14]), 4 µg/mL (≈ 11.9 µM).

Take `CN[C@H](CC(C)C)C(=O)N[C@H]1C(=O)N[C@@H](CC(N)=O)C(=O)N[C@H]2C(=O)N[C@H]3C(=O)N[C@H](C(=O)N[C@H](C(=O)O)c4cc(O)cc(O)c4-c4cc3ccc4O)[C@H](O)c3ccc(c(Cl)c3)Oc3cc2cc(c3O[C@@H]2O[C@H](CO)[C@@H](O)[C@H](O)[C@H]2O[C@H]2C[C@](C)(N)[C@H](O)[C@H](C)O2)Oc2ccc(cc2Cl)[C@H]1O` [Van, Vancomycin, reference compound]: the MIC against S. aureus^MS [1] is 0.25 µg/mL (≈ 0.173 µM); in the assay on C. difficile 174, 0.5 µg/mL (≈ 0.345 µM); against E. faecalis^VanA it was above 128 µg/mL; in the assay with E. faecium^VRE (VRE) it was above 128 µg/mL; in the assay with C. difficile 161, 1 µg/mL (≈ 0.69 µM); in the assay on C. difficile 9689, 2 µg/mL (≈ 1.38 µM). Besides, the MIC with E. faecium^LinR was 0.5 µg/mL (≈ 0.345 µM); against S. epidermis it was 1 µg/mL (≈ 0.69 µM); in the assay on C. difficile 152, 1 µg/mL (≈ 0.69 µM); in the assay on C. difficile 181, 0.5 µg/mL (≈ 0.345 µM); with C. difficile 173 it was 0.5 µg/mL (≈ 0.345 µM); with S. aureus^VR it was above 128 µg/mL. Moreover, the MIC with E. faecalis worked out at 1 µg/mL (≈ 0.69 µM); against E. faecium, 0.5 µg/mL (≈ 0.345 µM); in the assay with C. difficile 159 it was 2 µg/mL (≈ 1.38 µM); with S. epidermis^MR, 0.5 µg/mL (≈ 0.345 µM); against S. aureus^MS [2], 0.5 µg/mL (≈ 0.345 µM); in the assay with E. faecalis^LinR, 1 µg/mL (≈ 0.69 µM). For the same compound, in the assay with S. aureus^MR, the MIC came out at 0.5 µg/mL (≈ 0.345 µM).
